Test results published in patent publication US9901592B2 (priority 2008, dated 2018).
≈ marks a conversion by molar mass, not a printed value. Where “and” joins values, the source holds several entries; their conditions need not be identical. Equal values may be shown once. Read-outs that look alike come from different tables or passages of the source.

Tests used:
S. pneumoniae = test: microbe, parasite or virus in culture; format: cell-based
S. pyogenes 3029 = test: Intraperitoneal (IP) mouse infection model (ED50); format: in vivo; details: Streptococcus pyogenes, MAC-R S. pyogenes 3029
S. pyogenes ATCC 8668 = test: mouse subcutaneous abscess model; format: in vivo; details: 48 hr. post infection
Method: Example. Mouse Subcutaneous Abscess. Bacteria were prepared from an overnight plate culture by re-suspending in saline and adjusting the suspension to a 0.1 OD at 625 nm of a 1:10 dilution. The adjusted bacterial suspension was mixed 1:2 with cyclodextran beads prepared as per package instructions. The right flanks of the mice were shaven and injected subcutaneously with 0.2 ml of the bacterial inoculum. Two hours post infection mice were treated via oral gavage with either test article or control drug. 48 hours post infection, mice were euthanized, abscesses aseptically removed, homogenized, serially diluted and plated on bacterial growth agar. After overnight incubation, colonies were counted and CFUs/gram of abscess were determined.
Example. Mouse Subcutaneous Abscess˜S. pyogenes ATCC 8668 (Average Log10 CFU/gram of Abscess). Abscess processing 48 hours post infection.

S. pyogenes = test: microbe, parasite or virus in culture; format: cell-based; details: for MIC: Streptococcus pyogenes

Structure (SMILES): CC[C@H]1OC(=O)[C@H](C)C(=O)[C@H](C)[C@@H](O[C@@H]2O[C@H](C)C[C@H](N(C)C)[C@H]2O)[C@](C)(OC)C[C@@H](C)C(=O)[C@H](C)[C@H]2N(CCCCn3cnc(-c4cccnc4)c3)C(=O)O[C@]12C [TEL, telithromycin]
- Retest MIC after 10 Antibiotic-free Subcultures (S. pneumoniae; strain 1076 Macrolide-R [erm(B)&mef(A)], clone selected with TEL): >64 µg/mL
- Retest MIC after 10 Antibiotic-free Subcultures (S. pneumoniae; strain 1077 Macrolide-S, clone selected with AZI): 0.125 µg/mL
- Retest MIC after 10 Antibiotic-free Subcultures (S. pneumoniae; strain 1077 Macrolide-S, clone selected with CEM-101): 0.06a μg/ml
- Retest MIC after 10 Antibiotic-free Subcultures (S. pneumoniae; strain 1077 Macrolide-S, clone selected with CLN): 0.06 µg/mL
- Retest MIC after 10 Antibiotic-free Subcultures (S. pneumoniae; strain 1077 Macrolide-S, clone selected with TEL): 0.25 µg/mL
- Retest MIC after 10 Antibiotic-free Subcultures (S. pneumoniae; strain 1635 Macrolide-R [erm(A)], clone selected with AZI): 0.004 µg/mL
- Retest MIC after 10 Antibiotic-free Subcultures (S. pneumoniae; strain 1635 Macrolide-R [erm(A)], clone selected with CEM-101): 0.03 µg/mL
- Retest MIC after 10 Antibiotic-free Subcultures (S. pneumoniae; strain 1635 Macrolide-R [erm(A)], clone selected with CLN): 0.008 µg/mL
- Retest MIC after 10 Antibiotic-free Subcultures (S. pneumoniae; strain 1635 Macrolide-R [erm(A)], clone selected with CLR): 0.016 µg/mL
- Retest MIC after 10 Antibiotic-free Subcultures (S. pneumoniae; strain 2686 Macrolide-R [L4 mutation], clone selected with CEM-101): 0.25 µg/mL
- Retest MIC after 10 Antibiotic-free Subcultures (S. pneumoniae; strain 2686 Macrolide-R [L4 mutation], clone selected with CLR): 0.06 µg/mL
- Retest MIC after 10 Antibiotic-free Subcultures (S. pneumoniae; strain 2686 Macrolide-R [L4 mutation], clone selected with TEL): 0.5 µg/mL
- Retest MIC after 10 Antibiotic-free Subcultures (S. pneumoniae; strain 3009 Macrolide-R [23SrRNA mutation], clone selected with CEM-101): 0.06 µg/mL
- Retest MIC after 10 Antibiotic-free Subcultures (S. pneumoniae; strain 3009 Macrolide-R [23SrRNA mutation], clone selected with CLR): 0.06 µg/mL
- Retest MIC after 10 Antibiotic-free Subcultures (S. pneumoniae; strain 3665 Macrolide-R [mef(A)], clone selected with CEM-101): 0.25 µg/mL
- Retest MIC after 10 Antibiotic-free Subcultures (S. pneumoniae; strain 3665 Macrolide-R [mef(A)], clone selected with CLR): 0.06 µg/mL
- Retest MIC after 10 Antibiotic-free Subcultures (S. pneumoniae; strain 3665 Macrolide-R [mef(A)], clone selected with TEL): 0.25 µg/mL
- Retest MIC after 10 Antibiotic-free Subcultures (S. pneumoniae; strain 7127 Macrolide-S [S20N in L4, A105V in L22], clone selected with AZI): 0.016 µg/mL
- Retest MIC after 10 Antibiotic-free Subcultures (S. pneumoniae; strain 7127 Macrolide-S [S20N in L4, A105V in L22], clone selected with CEM-101): 0.06 µg/mL
- Retest MIC after 10 Antibiotic-free Subcultures (S. pneumoniae; strain 7127 Macrolide-S [S20N in L4, A105V in L22], clone selected with CLN): 0.008 µg/mL
- Retest MIC after 10 Antibiotic-free Subcultures (S. pneumoniae; strain 7127 Macrolide-S [S20N in L4, A105V in L22], clone selected with CLR): 0.008 µg/mL
- Retest MIC after 10 Antibiotic-free Subcultures (S. pneumoniae; strain 7127 Macrolide-S [S20N in L4, A105V in L22], clone selected with TEL): 0.03 µg/mL
- ED50 (S. pyogenes 3029): > 150 mg/kg
- Average Log10 CFU/gram of Abscess (S. pyogenes ATCC 8668; 10 mg/Kg): 7.06 Log10 CFU/gram
- Average Log10 CFU/gram of Abscess (S. pyogenes ATCC 8668; 20 mg/Kg): 6.10 Log10 CFU/gram
- strains with resistant clones / strains tested (S. pyogenes; S. pyogenes): 2/4 and 2/5
- MIC (S. pyogenes; read-out: Initial MIC, strain 237 Macrolide-R [LA mutation], parent): 0.06 µg/mL (≈ 0.0739 µM)
- MIC (S. pyogenes; read-out: Initial MIC, strain 2011 Macrolide-R [mef(A)], parent): 0.5 µg/mL (≈ 0.616 µM)
- MIC (S. pyogenes; read-out: Initial MIC, strain 2094 Macrolide-R [erm(A)], parent): 0.03 µg/mL (≈ 0.0369 µM)
- MIC (S. pyogenes; read-out: Initial MIC, strain 2132 Macrolide-S, parent): 0.008 µg/mL (≈ 0.00985 µM)
- MIC (S. pyogenes; read-out: MIC of parents of resistant clones, S. pyogenes): 0.03 to 8 µg/mL
- MIC (S. pyogenes; read-out: Parental MICs, S. pyogenes, 5 strains with varying resistotypes): 0.03 to 8 µg/mL (≈ 0.0369 to 9.85 µM)
- MIC (S. pyogenes; read-out: Selected Resistance (MIC), strain 237 Macrolide-R [LA mutation], after serial passages in the drug): 0.125 µg/mL (≈ 0.154 µM)
- MIC (S. pyogenes; read-out: Selected Resistance (MIC), strain 2011 Macrolide-R [mef(A)], after serial passages in the drug): 1 µg/mL (≈ 1.23 µM)
- MIC (S. pyogenes; read-out: Selected Resistance (MIC), strain 2094 Macrolide-R [erm(A)], after serial passages in the drug): 0.25 µg/mL (≈ 0.308 µM)
- MIC (S. pyogenes; read-out: Selected Resistance (MIC), strain 2132 Macrolide-S, after serial passages in the drug): 0.03 µg/mL (≈ 0.0369 µM)
- MIC (S. pyogenes; read-out: Selected Resistance (MIC), strain 2368 Macrolide-R [erm(B)], after serial passages in the drug): > 64 µg/mL
- days until resistant clones (MIC increase) (S. pyogenes; daily passages, max. 50): 6 to 22 days
- Retest MIC after 10 Antibioticfree Subcultures (S. pyogenes; strain 237 Macrolide-R [LA mutation], clone selected with CEM-101): 1 µg/mL
- Retest MIC after 10 Antibioticfree Subcultures (S. pyogenes; strain 237 Macrolide-R [LA mutation], clone selected with CLN): 0.06 µg/mL
- Retest MIC after 10 Antibioticfree Subcultures (S. pyogenes; strain 2011 Macrolide-R [mef(A)], clone selected with AZI): 0.25 µg/mL
- Retest MIC after 10 Antibioticfree Subcultures (S. pyogenes; strain 2094 Macrolide-R [erm(A)], clone selected with AZI): 0.03 µg/mL
- Retest MIC after 10 Antibioticfree Subcultures (S. pyogenes; strain 2094 Macrolide-R [erm(A)], clone selected with CEM-101): 0.5 µg/mL
- Retest MIC after 10 Antibioticfree Subcultures (S. pyogenes; strain 2094 Macrolide-R [erm(A)], clone selected with CLN): 0.03 µg/mL
- Retest MIC after 10 Antibioticfree Subcultures (S. pyogenes; strain 2094 Macrolide-R [erm(A)], clone selected with CLR): 0.03 µg/mL
- Retest MIC after 10 Antibioticfree Subcultures (S. pyogenes; strain 2094 Macrolide-R [erm(A)], clone selected with TEL): 0.125 µg/mL
- Retest MIC after 10 Antibioticfree Subcultures (S. pyogenes; strain 2132 Macrolide-S, clone selected with AZI): 0.03 µg/mL
- Retest MIC after 10 Antibioticfree Subcultures (S. pyogenes; strain 2368 Macrolide-R [erm(B)], clone selected with CEM-101): >64 µg/mL
- Retest MIC after 10 Antibioticfree Subcultures (S. pyogenes; strain 2368 Macrolide-R [erm(B)], clone selected with TEL): >64 µg/mL
